# Source: patent US20250375503A1, “Method and System for Tuning Hormone Receptors through the Dynamic Intravenous Delivery of a Hormone According to a Target Physiological Cadence” (Well Cell Global LLC, priority 2024, published 2025)
# System: human kidney
# Experiment: periodic infusion of insulin into a perfused, extracted three-day-old human kidney (similar to PIR treatment)
# From the text: For example, using a three-day-old human kidney that was extracted or otherwise removed from the human body, after a control period, the kidney was augmented with a periodic infusion of insulin for approximately two hours at a concentration similar to the amount of insulin projected to be seen by a kidney in situ in a person who would receive physiological insulin resensitization (PIR) treatment.
# The perfusate was sampled before and after passing through the kidney at five-to-fifteen-minute intervals to determine if glucose was being removed and to determine any changes in electrolytes, such as sodium and potassium.
# The ability of the kidney to generate and excrete urine was monitored via a catheter attached to a ureter.
# Two-millimeter punch biopsies were examined approximately every fifteen minutes with a specialized Acquyre Biosciences microscope that produces pseudo-colored images at a cellular level that reflect the extent of intracellular organellar movement. Intracellular movement is dependent on the availability of cytoplasmic ATP (adenosine triphosphate).
substance,measurement,setting,value
insulin,ability of the kidney to generate and excrete urine,"monitored via catheter attached to a ureter, after about one hour of treatment, no excretion during control period",the kidney began to excrete urine
same,glucose ingested by the kidney from the perfusate,"perfusate sampled before and after passing through the kidney at five-to-fifteen-minute intervals, periodic insulin infusion for approximately two hours, versus control period",well in excess of the control level
same,"alteration of electrolyte concentrations (sodium, potassium) in the perfusate","perfusate sampled before and after passing through the kidney, periodic insulin infusion, versus control period",better alter the electrolyte concentrations in a manner similar to a kidney in situ
same,intracellular organellar movement in punch biopsies (reflects cytoplasmic ATP),"two-millimeter punch biopsies, Acquyre Biosciences microscope, after approximately thirty minutes of perfusion, relative to control period",obvious increase in intracellular movement relative to the control period
